PMC12670405, “Second-Generation AURKA-Targeting PROTACs: Structural Optimization toward in Vivo Degradation in Neuroblastoma” (Journal of Medicinal Chemistry, 2025)
Like-named read-outs stand apart in the source and are kept apart here.

Columns and labels:
[1] = test system: MYCN; test: MYCN protein levels, Simple Western; format: cell-based, human; conditions: for MYCN codepletion: IMR-32, 500 nM, 24h postexposure; for DC50: read-out: MYCN DC50 24h
Description: Cells were seeded in T-25 flasks at different densities ranging from 1 to 2 million cells per flask and allowed to adhere for 1–2 days. In experiments involving compound treatment, this was done by medium replacement containing the compound(s) of interest in their corresponding concentrations. In competition binding experiments, cells were first pretreated with an excess of MK-5108, thalidomide or MG-132 for 1 h by shaking gently at room temperature prior to addition of SK4454 or SK5527. All samples were normalized to contain the same percentage of DMSO as the negative DMSO controls. Cells were harvested on ice at their respective time points by scraping, washed with ice-cold PBS to collect remaining cells, and centrifuged (2500 rpm, 4 °C). A second washing and centrifugation step was performed prior to collection of the final cell pellets which were then snap-frozen in liquid nitrogen and kept frozen at −80 °C until further processing. Lysis of cell pellets occurred in cold RIPA buffer (0.5% w/v Sodium Deoxycholate, 150 mM NaCl, 50 mM TrisHCl pH 7.5, 0.1% w/v SDS, 1% w/v NP-40) supplemented with protease and phosphatase inhibitors (Roche, #11836145001, #04906845001) by rotating gently at 4 °C for 1h, followed by a centrifugation step for 10 min (10,000 rpm, 4 °C). The supernatant was collected and concentrations of the obtained protein lysates were measured using the Pierce BCA Protein Assay Kit (Thermo Fisher Scientific, #23227).
Simple Western analyses were performed with the Wes instrument (Bio-Techne) using the 12–230 kDa Wes Separation module and the EZ standard pack reagent 1 (Biotechne, #SM-W001, #PS-ST01EZ-8) following the manufacturer’s protocol. Protein lysates were loaded at 0.8 μg/μL under denaturing conditions (0.2 μg/μL for MYCN detection). Chemiluminescence peaks were generated by the Compass Software (Bio-Techne) and the area under the peaks calculated using the Gaussian fit method. Per lane, quantified data were always normalized to that of the loading control (Vinculin) prior to calculating fold changes relative to the negative DMSO control. Mean fold changes are calculated from 3 individual experiments. A list of the primary and secondary antibodies used can be found in the Supporting Information (Supplementary Table S7).
Graphs were generated using GraphPad Prism Software (version 10.1.2) or RStudio (R-4.3.2). All dose–response curves were computed on GraphPad Prism using the Variable Slope (four parameters) equation. Absolute half-maximal degradation (DC50), growth inhibitory (GI50) and enzymatic inhibitory (IC50) concentrations, as well as inhibition constants (Ki) were derived from dose–response curves via interpolation. Statistical tests were performed on GraphPad Prism and detailed in the figure legends. Unless otherwise stated, “n” in the figure legends indicates the number of independent experiments conducted at different times.

[2] = test system: caspase 3/7 in SK-N-BE(2)-C; test: Caspase-Glo 3/7 assay; format: cell-based, human; conditions: 48 h, 1 μM tariquidar
Description: (§1) Neuroblastoma cells were seeded in 384-well plates at different densities ranging from 1200 to 5000 cells/well and allowed to adhere overnight. Compound treatment was performed using the D300e Digital Dispenser (Tecan) in duplicate. At the 48 h time point, a Caspase-Glo 3/7 Assay (Promega, #G8090) was performed following the manufacturer’s protocol, but adapted to add a 1:2 ratio of Caspase-Glo 3/7 reagent volume to sample volume. The readout was performed using the GloMax Discover Microplate Reader (Promega). Caspase 3/7 luminescence values were normalized to that of the DMSO negative control, and mean relative caspase 3/7 luminescence values were calculated from 3 individual experiments.

[3] = test system: caspase 3/7 in NGP; test: Caspase-Glo 3/7 assay; format: cell-based, human; conditions: 48 h, 1 μM tariquidar
Description: as §1

[4] = test system: RPE; test: IncuCyte live-cell imaging, antiproliferative effect; format: cell-based

SMILES | MYCN codepletion [1] [%] | DC50 ([1]; IMR-32) [nM] | DC50 ([1]; NGP) [nM] | DC50 ([1]; SJNB-8) [nM] | induction of apoptosis (caspase 3/7) upon cotreatment with tariquidar (in words) [2] | induction of apoptosis (caspase 3/7) upon cotreatment with tariquidar (in words) [3] | GI50 ([4]; 72 h, read-out: Cell GI50 72h) [nM] | GI50 ([4]; 72h, read-out: GI50) [nM]
Cc1cc(Nc2ccc(F)c(CC3(C(=O)N4CCC(CN5CCN(c6ccc(N7CCC(=O)NC7=O)cn6)CC5)CC4)CCN(Cc4cccc(Cl)c4F)CC3)n2)n[nH]1 [SK4454] | ~50 | 117 | 1360 | 1390 | significant increased induction of apoptosis | no difference | 221 | –
Cc1cc(Nc2ccc(F)c(CC3(C(=O)N4CCC(F)(CN5CCN(c6ccc(N7CCC(=O)NC7=O)cn6)CC5)CC4)CCN(Cc4cccc(Cl)c4F)CC3)n2)n[nH]1 [SK5527] | ~50 | 236 | 89 | 772 | significant increased induction of apoptosis | no difference | 460 | ~500
